Patent publication US20250213598A1, “COMPOUNDS AS ELASTASE INHIBITOR AND SOLID FORM THEREOF” (priority 2023, published 2025)
Converted amounts (≈) assume the structure as drawn.

Key:
[1] = Mechanical stability of crystal form A (grinding experiment, XRPD); assay type: physicochemical; details: room temperature
Procedure: A certain amount of crystal form A of the compound shown in Formula (I) was weighed, and ground dry or wet with an appropriate amount of water for 3 minutes at room temperature (˜23° C., 70% RH) to evaluate the mechanical stability of the crystal form A. The XRPD spectrums are shown in FIG. 6.

[2] = Solid-state stability, 2-week study (HPLC, XRPD); assay type: physicochemical
Procedure: The solubility and stability are analyzed using an Agilent 1260 infinityII Binary Pump. • 4.

[3] = Photostability of crystal form A and amorphous form; assay type: physicochemical
Procedure: A certain amount of crystal form A and amorphous form of the compound shown in Formula (I) were respectively taken, and the stabilities of crystal form A and amorphous form were evaluated under light conditions.

[4] = Dynamic solubility in citrate buffer solutions at room temperature; assay type: physicochemical; details: for pH: supernatant
Procedure: During the test, about 200 mg of crystal form A or the amorphous form was added into 5 mL of buffered salt medium (approximately 40 mg/mL), and stirred magnetically at room temperature (approximately 25° C.). 1 mL of the suspension (or clear solution) taken at each of 2, 8, and 30 hours were centrifugated. The obtained solid is for crystal form detection (XRPD), and the supernatant/clear liquid after filtration is for solubility testing (HPLC) and pH testing.

[5] = biological target: T1, Recombinant Human Elastase (rhElastase) (Homo sapiens, UniProt P08246); experiment: Activity test against recombinant human elastase (rhElastase); assay type: biochemical
T1 sequence (P08246 30-267): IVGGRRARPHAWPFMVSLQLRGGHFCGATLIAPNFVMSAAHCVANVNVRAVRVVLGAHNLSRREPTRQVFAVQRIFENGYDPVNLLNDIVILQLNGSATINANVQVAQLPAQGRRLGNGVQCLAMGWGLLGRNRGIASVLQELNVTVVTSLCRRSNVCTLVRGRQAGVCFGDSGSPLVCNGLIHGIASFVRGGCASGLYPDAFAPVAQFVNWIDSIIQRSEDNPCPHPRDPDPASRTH
Procedure: Activation of protease: rhElastase was diluted to 2 μM with an activation buffer containing 1.25 μM Recombinant Mouse Active Cathepsin C Protein (mCathepsin C), and incubated at 37° C. for 2 h. After activation, the mature rhElastase was diluted to form a 3.33 nM rhElastase reaction solution. The compound was diluted in serial with DMSO and added to a 384-well plate (3-fold serial dilution, 10 concentration points, duplicate wells). For the 384-well plate containing the compound, columns 1-12 each was added with 15 μL of the reaction buffer and columns 13-24 each was added with 15 μL of the rhElastase reaction solution. The plate was pre-incubated at 25° C. for 30 min and added with 5 μL of the substrate to start the reaction. The final concentration of rhElastase is 2.5 nM, and the final concentration of the substrate is 3.125 μM. The final concentration of DMSO in the reaction system is 1%. After incubating at 37° C. for 60 min, the fluorescence value was read with an M4 microplate reader. The detection conditions are Ex/Em=380 nm/460 nm.

[6] = Pharmacokinetic experiment in Sprague-Dawley rats (intravenous / inhalation; plasma and lung); assay type: in vivo
Procedure: The appropriate amount of sodium citrate was weighed and dissolved in water to prepare a sodium citrate solution with a concentration of 1 mg/ml. After the addition of compound (I) (appropriate amount) under stirring, the sodium citrate solution was slowly added with 1 M sodium hydroxide solution to adjust the pH to 5.0±0.2. After stirring, dissolving and filtering, a stock solution of compound (I) with a concentration of 80 mg/ml was obtained, which is administrated by inhalation. The stock solution was diluted in a continuous gradient method to give a solution of compound (I) with a concentration of 0.4 mg/ml for intravenous administration.
21 male Sprague-Dawley rats was selected and divided into 7 groups (3 animals/group). Group 1 was administered intravenously at a dose of 2 mg/kg, and groups 2-7 are administered by inhalation at a designed dose of 15 mg/kg (an actual delivered dose is 16.712 mg/kg). For animals in groups 1-2, blood samples were collected before administration and at 2 min, 5 min, 15 min, 30 min, 1 h, 2 h, 4 h, 6 h, 8 h, and 24 h after administration. For animals in groups 3-7, lung tissues and blood samples were collected at 0.25 h, 1 h, 2 h, 6 h, and 12 h after administration (i.e., 2.25 h, 3 h, 4 h, 8 h, and 14 h After the start of the drug administration). The LC-MS/MS was used to analyze the concentration of compound (I) in the plasma and lung tissues of rats, and the non-compartmental model (NCA) of the pharmacokinetic analysis software WinNonlin (8.0.0.3176) is used to analyze the drug concentrations in plasma and lung tissue and calculate the pharmacokinetic parameters.

[7] = After 11 days, 25° C., illumination 5000 lux/h, near-ultraviolet 90 μW/cm^2
[8] = Inhalation, 15 mg/kg, SD rats, matrix Lung
[9] = Inhalation, 15 mg/kg, male SD rats, plasma
[10] = Intravenous, 2 mg/kg, male SD rats, plasma

CC(C)[C@H](NC(=O)[C@@H]1CCCN1C(=O)[C@@H](NC(=O)c1ccc(C(=O)NCC(=O)O)cc1)C(C)C)B1OB([C@@H](NC(=O)[C@@H]2CCCN2C(=O)[C@@H](NC(=O)c2ccc(C(=O)NCC(=O)O)cc2)C(C)C)C(C)C)OB([C@@H](NC(=O)[C@@H]2CCCN2C(=O)[C@@H](NC(=O)c2ccc(C(=O)NCC(=O)O)cc2)C(C)C)C(C)C)O1 [Form A]
Achieved Crystal Form ([1]; Dry grind for 3 minutes): Amorphous
Achieved Crystal Form ([1]; Dry grind for 3 minutes, listed as crystal form A): transformed into the amorphous form
Achieved Crystal Form ([1]; Wet grind with water for 3 minutes): Form A
Achieved Crystal Form ([1]; Wet grind with water for 3 minutes, listed as crystal form A): remains unchanged
Content (%) ([2]; 25° C./60 % RH, 1 week): 86.07%
Crystal form ([2]; 25° C./60 % RH, 1 week): Form A
Purity (area %) ([2]; 25° C./60 % RH, 1 week): 97.98 area %
Relative to initial (%) ([2]; 25° C./60 % RH, 1 week): 98.9%
Content (%) ([2]; 25° C./60 % RH, 2 weeks): 86.60%
Crystal form ([2]; 25° C./60 % RH, 2 weeks): Form A
Purity (area %) ([2]; 25° C./60 % RH, 2 weeks): 97.68 area %
Relative to initial (%) ([2]; 25° C./60 % RH, 2 weeks): 98.6%
crystal form changes in the two-week stability assessment ([2]; 25° C./60% RH, 40° C./75% RH, 60° C., two weeks): neither the amorphous form nor crystal form A underwent crystal form changes
Content (%) ([2]; 40° C./75 % RH, 1 week): 86.41%
Crystal form ([2]; 40° C./75 % RH, 1 week): Form A
Purity (area %) ([2]; 40° C./75 % RH, 1 week): 97.96 area %
Relative to initial (%) ([2]; 40° C./75 % RH, 1 week): 98.9%
Content (%) ([2]; 40° C./75 % RH, 2 weeks): 86.85%
Crystal form ([2]; 40° C./75 % RH, 2 weeks): Form A
Purity (area %) ([2]; 40° C./75 % RH, 2 weeks): 97.76 area %
Relative to initial (%) ([2]; 40° C./75 % RH, 2 weeks): 98.7%
Content (%) ([2]; 60° C., 1 week): 87.34%
Crystal form ([2]; 60° C., 1 week): Form A
Purity (area %) ([2]; 60° C., 1 week): 98.16 area %
Relative to initial (%) ([2]; 60° C., 1 week): 99.1%
Content (%) ([2]; 60° C., 2 weeks): 87.98%
Crystal form ([2]; 60° C., 2 weeks): Form A
Purity (area %) ([2]; 60° C., 2 weeks): 97.50 area %
Relative to initial (%) ([2]; 60° C., 2 weeks): 98.4%
Content (%) ([2]; initial): 87.08%
Crystal form ([2]; initial): Form A
Purity (area %) ([2]; initial): 99.05 area %
Content (%) [3, 7]: 85.00%
Crystal form [3, 7]: Form A
Purity (area %) [3, 7]: 97.92 area %
Relative to initial (%) [3, 7]: 98.9%
Initial Sample Content (%) ([3]; initial sample): 87.08%
Initial Sample Purity (area %) ([3]; initial sample): 99.05 area %
crystal form changes in the photostability test ([3]; light conditions): neither the amorphous form nor crystal form A underwent crystal form changes
Solubility ([4]; Citrate buffer pH = 3.5, room temperature, 2 hours): 6.15 mg/mL (≈ 4.1 mM)
Solubility ([4]; Citrate buffer pH = 3.5, room temperature, 8 hours): 15.28 mg/mL (≈ 10.2 mM)
Solubility ([4]; Citrate buffer pH = 3.5, room temperature, 30 hours): 27.16 mg/mL (≈ 18.1 mM)
Solubility ([4]; Citrate buffer pH = 4.5, room temperature, 2 hours): 16.06 mg/mL (≈ 10.7 mM)
Solubility ([4]; Citrate buffer pH = 4.5, room temperature, 8 hours): 31.34 mg/mL (≈ 20.9 mM)
Solubility ([4]; Citrate buffer pH = 4.5, room temperature, 30 hours): >34.94 mg/mL
pH ([4]; citrate buffer pH = 3.5, 2 hours): 3.56
pH ([4]; citrate buffer pH = 3.5, 8 hours): 3.58
pH ([4]; citrate buffer pH = 3.5, 30 hours): 3.56
pH ([4]; citrate buffer pH = 4.5, 2 hours): 4.48
pH ([4]; citrate buffer pH = 4.5, 8 hours): 4.46
pH ([4]; citrate buffer pH = 4.5, 30 hours): 4.38

CC(C)C(NC(=O)C1CCCN1C(=O)C(NC(=O)c1ccc(C(=O)NCC(=O)O)cc1)C(C)C)B1OB(C(NC(=O)C2CCCN2C(=O)C(NC(=O)c2ccc(C(=O)NCC(=O)O)cc2)C(C)C)C(C)C)OB(C(NC(=O)C2CCCN2C(=O)C(NC(=O)c2ccc(C(=O)NCC(=O)O)cc2)C(C)C)C(C)C)O1 (stereo not shown) [compound (I)]
IC50 [5]: 1.32 nM
Cmax [6, 8]: 67568.60
Tmax [6, 8]: 2.25 h
t1/2 [6, 8]: 2.69 h
Tmax ([6]; Inhalation, 15 mg/kg, SD rats, matrix Plasma): 2.25 h
Cmax ([6]; Inhalation, 15 mg/kg, SD rats, matrix Plasma, in ng/mL): 320.58
AUClast ([6]; Inhalation, 15 mg/kg, SD rats, matrix Plasma, in ng·h/mL): 622.35
F % ([6]; Inhalation, 15 mg/kg, male SD rats): 18.09%
AUClast [6, 9]: 1501.79 ± 486.138 ng·h/mL
Cmax [6, 9]: 798.55 ± 333.20 ng/mL
Tmax [6, 9]: 2.03 ± 0.0 h
t1/2 [6, 9]: 1.91 ± 1.05 h
AUClast [6, 10]: 1107.18 ± 144.07 ng·h/mL
Cmax [6, 10]: 5331.49 ± 696.49 ng/mL
Tmax [6, 10]: 0.03 ± 0.0 h
t1/2 [6, 10]: 0.33 ± 0.10 h
